Laboratory results from patent US12514882B2, “Faecalibacterium prausnitzii strain EB-FPDK11 and use thereof” (ENTEROBIOME INC., priority 2020, dated 2026).
Values after ≈ are worked out from the molar mass of the structure shown.

How the values were obtained:
Type in all cases: cell-based
[1] = system: Faecalibacterium prausnitzii DSM 17677^T; assay: MIC, liquid medium microdilution (CLSI), standard strain; details: for MIC breakpoint category (S/I/R): DSM 17677^T
[2] = system: Faecalibacterium prausnitzii EB-FPDK11 strain; assay: MIC, liquid medium microdilution (CLSI), EB-FPDK11; details: for MIC breakpoint category (S/I/R): EB-FPDK11; for resistance or susceptibility of the EB-FPDK11 strain to the agent (in words): text summary of Table 4
[3] = system: Bacteroides thetaiotaomicron ATCC 29741; assay: MIC, liquid medium microdilution (CLSI), QC strain; details: ATCC29741

For `O=C(N[C@H](CO)[C@H](O)c1ccc([N+](=O)[O-])cc1)C(Cl)Cl` [CHL, chloramphenicol], the “MIC breakpoint category (S/I/R)” value ([1]; CHL breakpoints) was “R (≥32)”, the “MIC breakpoint category (S/I/R)” value ([2]; CHL breakpoints) was “S (≤8)” and the “resistance or susceptibility of the EB-FPDK11 strain to the agent (in words)” value (shortened to “resistance or susceptibility”) [2] was “susceptibility”.
`CCC[C@@H]1C[C@@H](C(=O)N[C@@H]([C@H]2O[C@H](SC)[C@H](O)[C@@H](O)[C@H]2O)[C@H](C)Cl)N(C)C1` [CLI, clindamycin] was tested, and the “MIC breakpoint category (S/I/R)” value ([1]; CLI breakpoints) was “(S) (≤2)” and the “MIC breakpoint category (S/I/R)” value ([2]; CLI breakpoints) was “(S) (≤2)”.
With `CO/N=C(\C(=O)N[C@@H]1C(=O)N2C(C(=O)O)=CCS[C@H]12)c1csc(N)n1` [CTZ, ceftizoxime] the “MIC breakpoint category (S/I/R)” value ([1]; CTZ breakpoints) was “I (64)”, the “MIC breakpoint category (S/I/R)” value ([2]; CTZ breakpoints) was “R (≥128)” and the “resistance or susceptibility” value [2] was “resistance”.
In the case of `C[C@@H](O)[C@H]1C(=O)N2C(C(=O)O)=C(S[C@@H]3CN[C@H](C(=O)N(C)C)C3)[C@H](C)[C@H]12` [MEM, meropenem], the “MIC breakpoint category (S/I/R)” value ([1]; MEM breakpoints) is reported as “R (≥16)”, the “MIC breakpoint category (S/I/R)” value ([2]; MEM breakpoints) is reported as “R (≥16)” and the “resistance or susceptibility” value [2] is reported as “resistance”. The MIC [3] was 0.5 µg/mL (≈ 1.3 µM).
For `Cc1ncc([N+](=O)[O-])n1CCO` [MTZ, metronidazole], the “MIC breakpoint category (S/I/R)” value ([1]; MTZ breakpoints) was “S (≤8)”, the “MIC breakpoint category (S/I/R)” value ([2]; MTZ breakpoints) was 5 and the “resistance or susceptibility” value [2] was “susceptibility”.
`COc1c(N2C[C@@H]3CCCN[C@@H]3C2)c(F)cc2c(=O)c(C(=O)O)cn(C3CC3)c12` [MXF, moxifloxacin] was tested, and the “MIC breakpoint category (S/I/R)” value ([1]; MXF breakpoints) was “R (≥8)” and the “MIC breakpoint category (S/I/R)” value ([2]; MXF breakpoints) was “R (≥8)”.
In the case of Piperacillin-tazobactam [PTZ], the “MIC breakpoint category (S/I/R)” value ([1]; PTZ breakpoints) is reported as “R (≥128/4)”, the MIC ([1]; test strain DSM 17677^T) is reported as 256/4 and the “MIC breakpoint category (S/I/R)” value ([2]; PTZ breakpoints) is reported as “R (≥128/4)”. The MIC ([2]; test strain EB-FPDK11) was 256/4 and the “resistance or susceptibility” value [2] was “resistance”.
